Entries after “also recorded” stand apart in the source; their conditions may differ.
Legend:
[1] = system: freshly isolated human neutrophils (PMNs); assay: Live time-lapse confocal imaging of probe uptake in activated human neutrophils; format: cell-based
Method: (§1) Human peripheral blood leukocytes from healthy volunteers were prepared as previously described^25. Briefly, citrated blood was centrifuged at room temperature for 20 min at 350 g, and platelet-rich plasma was removed. Autologous serum was prepared by recalcification of platelet-rich plasma by addition of CaCl2 to a final concentration of 2 mM. Leukocytes were separated from erythrocytes by dextran sedimentation using 0.6% dextran T500 (Pharmacia, Milton Keynes, UK), and the leukocyte-rich upper layer was then fractionated using isotonic Percoll (Pharmacia). Neutrophils and mononuclear leukocytes (PBMC) were harvested from the 68%181% and 55/68% interfaces, respectively. In some experiments, neutrophils were labelled with DiD (Invitrogen, molecular probes) (2.5 μM) in D-PBS (w/o Ca/Mg) for 20 min at room temperature.
A laser-scanning confocal imaging system (LSM510; Carl Zeiss, Jena, Germany), incorporating an upright Axioskop FS2 microscope (63× objective) was used for image acquisition and processing. Exposure to 488 nm light was limited to 1-6% of the maximum laser power in order to minimize photobleaching and toxicity. In all cases, images were obtained without Kalman averaging and typically with a pixel dwell time of 3.2 μs with a pinhole diameter corresponding to 1 Airy unit. In multiple-labelling experiments pinhole diameters were adjusted to give optical Z-sections of equivalent depths, corresponding to 1 Airy unit for the longest excitation wavelength. All live time-lapse imaging of was performed in IMDM. Coverslips were transferred to a thermostatted environmental stage (POC Mini) maintained at 30° C.^26. Drugs were added by bath addition. In experiments where fluorescein was examined alone, the fluorophore was excited with a dedicated 488 nm line, and emitted light reflected from a NFT545 filter and passed through an LP505 filter.
In multiple labelling experiments involving membrane (DiD, Invitrogen), or dextran-647, and IQR probes, images were obtained simultaneously. DiD or dextran-647 was excited with a dedicated 633 nm line, and emitted light detected with meta detector (650-705 nm), whereas Fluorescein was excited with a dedicated 488 nm line, and emitted light reflected from a NFT545 filter and passed through an LP505 filter.
Neutrophils and mononuclear cells (6×10^5 cells total), or PBMC-derived macrophages, were seeded onto glass coverslips pre-coated with 10 μg/ml fibronectin (Sigma). Cells were allowed to adhere and 10 μM (final concentration) IQR1.2 added to wells prior to transfer to POC mini and placement in environmental chamber. Live imaging commenced at 30 s intervals. Baseline images were acquired for 10-15 min prior to addition of A21387 (10 μM, Sigma) and live time-lapse confocal images acquired for further 20 min. Where sivelestat or dynasore was included, cells were pretreated for 10 minutes prior to imaging.

[2] = system: PMNs, monocytes and lymphocytes; assay: Human cell specificity by live confocal imaging; format: cell-based; conditions: PMNs vs monocytes vs lymphocytes
Method: as §1, with “temperature. […]” for “temperature.”
In multiple labelling experiments using IQR probes in combination with syto-85 (Invitrogen, 2.5 μM, 30 minutes, 37° C.), images were acquired sequentially. Fluorescein was excited with a dedicated 488 nm line and emitted light reflected from a NFT545 filter and passed through an LP505 filter whereas syto-85 were excited with a dedicated 543 nm line, and emitted light detected with meta detector ([…]). […]

[3] = system: freshly isolated human neutrophils; assay: In vitro Cellvizio 488 nm fibreoptic confocal imaging; format: cell-based
Method: Human neutrophils were isolated as described above and suspended in PBS with or without activating agents. A fibreoptic confocal system (488 Cellvizio) was used to acquire images in eppendorfs of cells both in the presence of free FAM and IQRs and after washing cells of free FAM and IQR in media. Imaging was performed for 60 s and representative still frames converted to bmp format.

[4] = molecular target: T1, recombinant human neutrophil elastase (HNE) (Homo sapiens, UniProt P08246); assay: Fluorescent microplate reader dequenching with HNE; format: biochemical; conditions: 50 uM
T1 sequence (P08246 30-267): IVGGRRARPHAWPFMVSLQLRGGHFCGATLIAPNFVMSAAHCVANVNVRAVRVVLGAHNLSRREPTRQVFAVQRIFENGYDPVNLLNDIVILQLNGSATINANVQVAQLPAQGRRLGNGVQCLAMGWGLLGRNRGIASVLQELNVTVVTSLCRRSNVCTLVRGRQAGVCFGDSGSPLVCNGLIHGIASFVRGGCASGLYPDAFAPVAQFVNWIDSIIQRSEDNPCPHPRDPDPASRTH
Method: IQR4 (0.5 uM) was incubated with of human neutrophil elastase (HNE; 11.3 ug/ml) in reaction buffer (50 mm Hepes buffer, pH 7.4, 0.75 m NaCl, 0.05% Igepal CA-630 (v/v)) with or without of sivelestat (50 uM). The timecourse of fluorescence dequenching was followed for 30 min with a fluorescence microplate reader (excitation 480/20, emission 528/25).

[5] = system: human neutrophil lysate; assay: Fluorescent microplate reader dequenching with neutrophil lysate; format: biochemical; conditions: 50 uM
Method: For experiments using neutrophil lysate, IQR4 (0.5 uM) is incubated with freeze-thawed neutrophil lysate (10×10^8 cells/ml) in IMDM with or without sivelestat (50 uM). The timecourse of fluorescence dequenching was followed for 30 min with a fluorescence microplate reader (excitation 480/20, emission 528/25).

For `O=C(N/N=C/c1ccc(O)c(O)c1)c1cc2ccccc2cc1O` [Dynasore], the “effect on uptake of IQR1.2 by activated neutrophils” value ([1]; pre-treatment, probe IQR1.2) was “prevented”, the “effect on uptake of FAM by activated neutrophils” value ([1]; pretreatment, probe FAM) was “prevented” and the “effect on cell-associated fluorescence of IQR1 in activated neutrophils” value ([1]; probe IQR1) was “inhibited”.
For 5(6)-carboxyfluorescein [FAM], the “probe uptake after pretreatment with dynamin inhibitor Dynasore” value ([1]; activated neutrophils, Dynasore pretreatment) was “prevented”, the “appearance of punctate cell-associated fluorescence” value ([1]; activation with 10 μM A23187 (calcium ionophore), confocal imaging) was “rapid appearance of punctate cell-associated fluorescence” and the “cell specificity of probe uptake/activation” value [2] was “Only activated PMN's internalise FAM”. For the same compound, the “resolution of activated cells before wash” value ([3]; 15 min exposure, probe in medium) was “not possible to resolve activated cells” and the “visibility of activated cells after washing” value ([3]; cells spun down, probe removed) was “activated cells are visible”.
For `CC(C)(C)C(=O)Oc1ccc(S(=O)(=O)Nc2ccccc2C(=O)NCC(=O)O)cc1` [sivelestat], the “effect on punctate cell-associated fluorescence from probe IQR4 in activated neutrophils” value ([1]; 50 μM, pre-treatment 10 mins, A23187) was “blocked; also recorded: inhibits the appearance of this punctate cell-associated fluorescence”, the “effect on HNE-induced dequenching of IQR4” value [4] was “inhibited; also recorded: blocked” and the “effect on neutrophil lysate-induced dequenching of IQR4” value [5] was “blocked; also recorded: inhibited”.

Source: patent US10434191B2, “Optical imaging probes” (THE UNIVERSITY COURT OF THE UNIVERSITY OF EDINBURGH, priority 2011, dated 2019)
